Data taken from publication PMC6830213, “High-throughput structures of protein–ligand complexes at room temperature using serial femtosecond crystallography” (IUCrJ, 2019).
Each block holds one molecule with its values, some of them ahead of it.

What was measured:
[1] = target: T1, dehaloperoxidase B (DHP-B; DHP) (Amphitrite ornata, UniProt Q9NAV7); experiment: SFX crystal structure, room temperature, […] A; type: binding; conditions: 3-5 min, distal heme pocket, not bound to iron
T1 construct: homodimer in the asymmetric unit

[2] = target: Dye-type peroxidase Aa from Streptomyces lividans (Streptomyces lividans); experiment: crystal structure; serial femtosecond crystallography at room temperature, microcrystals on silicon fixed-target chips, SACLA beamline BL2 EH3; two monomers (homodimer) in the crystallographic asymmetric unit
[3] = target: the molecule itself; experiment: as above

Molecule: Oc1ccc(Cl)cc1Cl [2,4-dichlorophenol]
SFX crystal structure, room temperature, 1.85 A ([1]; crystals pH 6.0, soaked 5 mM, near-full occupancy in monomer B): DCP exhibited a binding site that was virtually identical to those previously observed

Molecule: Brc1ccc2[nH]ccc2c1 [5-bromoindole]
SFX crystal structure, room temperature, 1.85 A ([1]; crystals pH 6.0, soaked 50 mM, lower occupancy in second monomer): the 5BR complex was consistent with a computationally hypothesized binding site

stoichiometry N [2]: 2
Molecule: Dye-type peroxidase Aa from Streptomyces lividans (enzyme)

B1: Dehaloperoxidase B from Amphitrite ornata (enzyme)
chain: GFKQDIATLRGDLRTYAQDIFLAFLNKYPDEKRNFKNYVGKSDQELKSMAKFGDHTEKVFNLMMEVADRATDCVPLASDASTLVQMKQHSGLTTGNFEKLFVALVEYMRASGQSFDSQSWDRFGKNLVSALSSAGMK
notes: Dehaloperoxidase B (DHP-B), heme peroxidase from the marine annelid Amphitrite ornata; Heme protein; Crystallised with the small ligands DCP or 5BR soaked in; also called DHP-B; DHP; source: expressed and purified as described previously (McCombs, Moreno-Chicano et al., 2017)
stoichiometry N [3]: 2
